The record followed here is patent publication US8829030B2 (priority 2002, dated 2014).

This assay has as its target recombinant HCV RNA-dependent RNA polymerase (NS5B protein) (Hepatitis C virus genotype 1b, UniProt P26663). Briefly: biochemical. The arrangement: species or system HCV-Bk strain.
The mark [1] stands for this setting: read-out: Activity (polymerase activity, IC50).

Molecules are shown by their SMILES. Read-outs that look alike come from different tables or passages of the source. Where only a bound is given, the exact number is not on record here.

Chain of recombinant HCV RNA-dependent RNA polymerase (NS5B protein) (P26663 2420-3010 limits assumed): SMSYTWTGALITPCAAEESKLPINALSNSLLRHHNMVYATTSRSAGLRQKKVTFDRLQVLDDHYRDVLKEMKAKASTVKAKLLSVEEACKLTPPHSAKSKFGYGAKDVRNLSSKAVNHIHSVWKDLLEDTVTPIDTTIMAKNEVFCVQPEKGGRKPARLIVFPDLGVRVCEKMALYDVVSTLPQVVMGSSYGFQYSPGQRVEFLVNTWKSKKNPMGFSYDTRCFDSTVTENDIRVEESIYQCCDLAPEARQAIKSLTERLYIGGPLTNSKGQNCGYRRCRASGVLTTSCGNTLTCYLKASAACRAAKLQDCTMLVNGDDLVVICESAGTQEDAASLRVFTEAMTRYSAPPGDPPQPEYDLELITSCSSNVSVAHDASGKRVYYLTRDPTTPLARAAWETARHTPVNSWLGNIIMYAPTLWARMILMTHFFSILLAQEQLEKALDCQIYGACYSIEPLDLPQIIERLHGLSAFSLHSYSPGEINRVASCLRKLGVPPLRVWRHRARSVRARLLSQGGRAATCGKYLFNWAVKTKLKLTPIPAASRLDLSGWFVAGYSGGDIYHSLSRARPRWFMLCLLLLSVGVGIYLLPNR

Turning to `CC1CCC(C(=O)N(c2cc(-c3ccccc3)sc2C(=O)O)C(C)CN)CC1` (centres unmarked) [Compound 36, 3-[(2-amino-1-methyl-ethyl)-(4-methyl-cyclohexanecarbonyl)-amino]-5-phenyl-thiophene-2-carboxylic acid], the 50% inhibitory concentration (IC50) is below 5 µM.

`C[C@H]1CC[C@H](C(=O)N(c2cc(-c3ccccc3)sc2C(=O)O)C2CCS(=O)(=O)CC2)CC1` [Compound 37, 3-[(1,1-Dioxo-tetrahydro-thiopyran-4-yl)-(trans-4-methyl-cyclohexanecarbonyl)-amino]-5-phenyl-thiophene-2-carboxylic acid]: the half-inhibitory concentration (IC50) is below 5 µM.

As for `CC1CCC(C(=O)N(CC2CCN(C)CC2)c2cc(-c3ccccc3)sc2C(=O)O)CC1` (centres unmarked) [Compound 38, 4-{[(2-carboxy-5-phenyl-thiophen-3-yl)-(4-methyl-cyclohexanecarbonyl)-amino]-methyl}-1-methyl-piperidinium chloride], the IC50 was below 5 µM. Same read-out and setting: the figure for `COc1ccc(CN2CCC(N(c3cc(-c4ccccc4)sc3C(=O)O)C(=O)[C@H]3CC[C@H](C)CC3)CC2=O)cc1` (some centres unmarked) [Compound 42, 3-[[1-(4-methoxy-benzyl)-2-oxo-piperidin-4-yl]-(4-methyl-cyclohexanecarbonyl)-amino]-5-phenyl-thiophene-2-carboxylic acid] is below 5 µM.

For `CC1CCC(C(=O)N(c2cc(-c3ccccc3)sc2C(=O)O)C(C)CN=[N+]=[N-])CC1` (centres unmarked) [Compound 43, 3-[(2-azido-1-methyl-ethyl)-(4-methyl-cyclohexanecarbonyl)-amino]-5-phenyl-thiophene-2-carboxylic acid], under setting [1], the IC50 is below 5 µM. In the case of `CC1CCC(C(=O)N(c2cc(-c3cccc(F)c3)sc2C(=O)O)C(C)C)C(O)C1` (centres unmarked) [Compound 44, 5-(3-fluoro-phenyl)-3-[(2-hydroxy-4-methyl-cyclohexanecarbonyl)-isopropyl-amino]-thiophene-2-carboxylic acid], the IC50 was below 5 µM. On the same count and under the same terms, the figure for `CO[C@H]1CC[C@H](N(c2cc(-c3ccccc3)sc2C(=O)O)C(=O)[C@H]2CC[C@H](C)CC2)CC1` [Compound 46, 3-[(4-methoxy-cyclohexyl)-(4-methyl-cyclohexanecarbonyl)-amino]-5-phenyl-thiophene-2-carboxylic acid] is below 5 µM.

For the molecule `C[C@H]1CC[C@H](C(=O)N(c2cc(-c3ccccc3)sc2C(=O)O)[C@H]2CC[C@@H](O)CC2)CC1` [Compound 47, 3-[(4-methyl-cyclohexanecarbonyl)-(4-hydroxy-cyclohexyl)-amino]-5-phenyl-thiophene-2-carboxylic acid], the IC50 was below 5 µM. In the case of `CC(=O)N1CCC(N(C(=O)C2CCC(C)CC2)c2cc(-c3ccccc3)sc2C(=O)O)CC1` (centres unmarked) [Compound 48, 3-[(1-acetyl-piperidin-4-yl)-(4-methyl-cyclohexanecarbonyl)-amino]-5-phenyl-thiophene-2-carboxylic acid], the IC50 is below 5 µM. Still for that read-out and setting: as for `CC1CCC(C(=O)N(c2cc(-c3ccccc3)sc2C(=O)O)C2CCC[NH+](C)CC2)CC1` (centres unmarked) [Compound 49, 4-[(2-carboxy-5-phenyl-thiophen-3-yl)-(4-methyl-cyclohexanecarbonyl)-amino]-1-methyl-azepanium chloride], the figure is below 5 µM. As to `C[C@H]1CC[C@H](C(=O)N(c2cc(-c3ccc(F)cc3)sc2C(=O)O)[C@H]2CC[C@H](O)CC2)CC1` [Compound 50, 5-(4-fluoro-phenyl)-3-[(4-hydroxy-cyclohexyl)-(4-methyl-cyclohexanecarbonyl)-amino]-thiophene-2-carboxylic acid], the IC50 is below 5 µM. Turning to `CC1CCC(C(=O)N(c2cc(-c3cccc(F)c3)sc2C(=O)O)C2CCC(O)CC2)CC1` (centres unmarked) [Compound 51, 5-(3-fluoro-phenyl)-3-[(4-hydroxy-cyclohexyl)-(4-methyl-cyclohexanecarbonyl)-amino]-thiophene-2-carboxylic acid], the 50% inhibitory concentration (IC50) is below 5 µM.

Regarding `CC1=CCC(C(=O)N(c2cc(-c3ccc(F)cc3)sc2C(=O)O)C(C)C)CC1` (centres unmarked) [Compound 53, 5-(4-fluoro-phenyl)-3-[isopropyl-(4-methyl-cyclohex-3-enecarbonyl)-amino]-thiophene-2-carboxylic acid], the IC50 was below 5 µM. `CC1CCC(C(=O)N(c2cc(-c3ccc(Cl)cc3)sc2C(=O)O)C2CCC(O)CC2)CC1` (centres unmarked) [Compound 59, 5-(4-chloro-phenyl)-3-[(4-hydroxy-cyclohexyl)-(4-methyl-cyclohexanecarbonyl)-amino]-thiophene-2-carboxylic acid]: the IC50 was below 5 µM.

Consider `COc1ccc(-c2cc(N(C(=O)C3CCC(C)CC3)C3CCC(O)CC3)c(C(=O)O)s2)cc1` (centres unmarked) [Compound 60, 3-[(4-hydroxy-cyclohexyl)-(4-methyl-cyclohexanecarbonyl)-amino]-5-(4-methoxy-phenyl)-thiophene-2-carboxylic acid], for which the IC50 was below 5 µM. For `CC1CCC(C(=O)N(c2cc(-c3ccc(C#N)cc3)sc2C(=O)O)C2CCC(O)CC2)CC1` (centres unmarked) [Compound 61, 5-(4-cyano-phenyl)-3-[(4-hydroxy-cyclohexyl)-(4-methyl-cyclohexanecarbonyl)-amino]-thiophene-2-carboxylic acid], the half-inhibitory concentration (IC50) was below 5 µM. On the same count and under the same terms, as for `COc1ccc(-c2cc(N(C(=O)C3CCC(C)CC3O)C(C)C)c(C(=O)O)s2)cc1` (centres unmarked) [Compound 62, 3-[(2-hydroxy-4-methyl-cyclohexanecarbonyl)-isopropyl-amino]-5-(4-methoxy-phenyl)-thiophene-2-carboxylic acid], the figure is below 5 µM; as for `CC1CCC(C(=O)N(c2cc(-c3ccccc3)sc2C(=O)O)C2CCN(C=O)CC2)CC1` (centres unmarked) [Compound 63, 3-[(1-formyl-piperidin-4-yl)-(4-methyl-cyclohexanecarbonyl)-amino]-5-phenyl-thiophene-2-carboxylic acid], below 5 µM. As to `CC1CCC(C(=O)N(c2cc(-c3ccccc3)sc2C(=O)O)N(C)C)CC1` (centres unmarked) [Compound 64, 3-[N′,N′-dimethyl-n-(4-methyl-cyclohexanecarbonyl)-hydrazino]-5-phenyl-thiophene-2-carboxylic acid], the IC50 is below 5 µM. The same measure, in the same setting: as for `CC1CCC(C(=O)N(CC2CCCN(C)C2)c2cc(-c3ccc(F)cc3)sc2C(=O)O)CC1` (centres unmarked) [Compound 69, 5-(4-fluorophenyl)-((4-methyl-cyclohexanecarbonyl)-1-(methyl-piperidin-3-ylmethyl)-amino)-thiophene-2-carboxylic acid], the figure is below 5 µM. The same measure, in the same setting: the figure for `CS(=O)(=O)N1CCC(N(c2cc(-c3ccccc3)sc2C(=O)O)C(=O)[C@H]2CC[C@H](C)CC2)CC1` [Compound 70, 3-[(1-methanesulfonyl-piperidin-4-yl)-(4-methyl-cyclohexanecarbonyl)-amino]-5-phenyl-thiophene-2-carboxylic acid] is below 5 µM.

For `CNC(=O)N1CCC(N(C(=O)C2CCC(C)CC2)c2cc(-c3ccccc3)sc2C(=O)O)CC1` (centres unmarked) [Compound 71, 3-[(1-methylcarbamoyl-piperidin-4-yl)-(4-methyl-cyclohexanecarbonyl)-amino]-5-phenyl-thiophene-2-carboxylic acid], the IC50 was below 5 µM. Still for that read-out and setting: as for `CN(C)N(C(=O)c1ccc(Cl)cc1Cl)c1cc(-c2ccccc2)sc1C(=O)O` [Compound 72, 3-[n-(2,4-dichloro-benzoyl)-N′,N′-dimethyl-hydrazino]-5-phenyl-thiophene-2-carboxylic acid], the figure is below 5 µM; as for `C[C@H]1CC[C@H](C(=O)N(c2cc(-c3ccc(F)cc3)sc2C(=O)O)[C@H]2CC[C@@H](O)CC2)CC1` [Compound 73, 5-(4-fluoro-phenyl)-3-[(4-hydroxy-cyclohexyl)-(4-methyl-cyclohexanecarbonyl)-amino]-thiophene-2-carboxylic acid], below 5 µM. `CNC(=O)N1CCC(N(C(=O)C2CCC(C)CC2)c2cc(-c3ccccc3)sc2C(=O)O)CC1` (centres unmarked) [Compound 74, 3-[(1-methylcarbamoyl-piperidin-4-yl)-(4-methyl-cyclohexanecarbonyl)-amino]-5-phenyl-thiophene-2-carboxylic acid]: the IC50 under setting [1] is below 5 µM.

Take `CC1CCC(C(=O)N(c2cc(-c3ccccc3)sc2C(=O)O)C2CCN(C)C(=O)C2)CC1` (centres unmarked) [Compound 75, 3-[(4-methyl-cyclohexanecarbonyl)-(1-methyl-2-oxo-piperidin-4-yl)-amino]-5-phenyl-thiophene-2-carboxylic acid]: the IC50 under setting [1] was below 5 µM.

In the case of `CC1CCC(C(=O)N(c2cc(-c3ccccc3)sc2C(=O)O)[C@H]2CC[C@H](C(=O)O)CC2)CC1` (some centres unmarked) [Compound 76, 3-[(4-carboxy-cyclohexyl)-(4-methyl-cyclohexanecarbonyl)-amino]-5-phenyl-thiophene-2-carboxylic acid], the IC50 was below 5 µM. Same read-out and setting: as for `CC1CCC(C(=O)N(c2cc(-c3ccccc3)sc2C(=O)O)C2CCN(C#N)CC2)CC1` (centres unmarked) [Compound 77, 3-[(1-cyano-piperidin-4-yl)-(4-methyl-cyclohexanecarbonyl)-amino]-5-phenyl-thiophene-2-carboxylic acid], the figure is below 5 µM; as for `CC1CCC(C(=O)N(c2cc(-c3ccccc3)sc2C(=O)O)[C@H]2CC[C@@H](C(=O)O)CC2)CC1` (some centres unmarked) [Compound 78, 3-[(4-carboxy-cyclohexyl)-(4-methyl-cyclohexanecarbonyl)-amino]-5-phenyl-thiophene-2-carboxylic acid], below 5 µM; as for `C[C@H]1CC[C@H](C(=O)N(c2cc(-c3ccc(F)c(F)c3)sc2C(=O)O)[C@H]2CC[C@H](O)CC2)CC1` [Compound 79, 5-(3,4-difluoro-phenyl)-3-[(4-hydroxy-cyclohexyl)-(4-methyl-cyclohexanecarbonyl)-amino]-thiophene-2-carboxylic acid], below 5 µM.

Regarding `CC(=O)c1ccc(-c2cc(N(C(=O)[C@H]3CC[C@H](C)CC3)[C@H]3CC[C@H](O)CC3)c(C(=O)O)s2)s1` [Compound 80, 5′-acetyl-4-[(4-hydroxy-cyclohexyl)-(4-methyl-cyclohexanecarbonyl)-amino]-[2,2′]bithiophenyl-5-carboxylic acid], the half-maximal inhibitory concentration (IC50) was below 5 µM. As to `CC1CCC(C(=O)N(c2cc(-c3ccccc3)sc2C(=O)O)C2CCN(C(N)=O)CC2)CC1` (centres unmarked) [Compound 81, 3-[(1-carbamoyl-piperidin-4-yl)-(4-methyl-cyclohexanecarbonyl)-amino]-5-phenyl-thiophene-2-carboxylic acid], the 50% inhibitory concentration (IC50) is below 5 µM.
